Source: PubChem BioAssay (NCI)
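Exposure lasted 48 hours, with cells grown in 96-well plates and compounds tested at five concentrations. GI50 = concentration required for 50% inhibition of growth. The concentration for full growth arrest is given as TGI.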

How the values were obtained:
Test in all cases: DTP human tumour cell line panel, 48 h
MDA-MB-468 breast = system: MDA-MB-468 breast
SN12C renal = system: SN12C renal
UACC-62 melanoma = system: UACC-62 melanoma
MDA-MB-435 = system: MDA-MB-435
MALME-3M melanoma = system: MALME-3M melanoma
HCT-15 colon = system: HCT-15 colon
OVCAR-4 ovarian = system: OVCAR-4 ovarian
NCI-H226 lung = system: NCI-H226 lung
EKVX NSCLC = system: EKVX NSCLC
NCI-H23 lung = system: NCI-H23 lung
HCT-116 colon = system: HCT-116 colon
HOP-62 NSCLC = system: HOP-62 NSCLC
RPMI-8226 leukemia = system: RPMI-8226 leukemia
SF-539 CNS = system: SF-539 CNS
COLO 205 colon = system: COLO 205 colon
HOP-92 NSCLC = system: HOP-92 NSCLC
HCC-2998 colon = system: HCC-2998 colon
SK-MEL-2 melanoma = system: SK-MEL-2 melanoma
OVCAR-3 ovarian = system: OVCAR-3 ovarian
A549 NSCLC = system: A549 NSCLC
SNB-19 CNS = system: SNB-19 CNS
MCF7 breast = system: MCF7 breast
DU-145 prostate = system: DU-145 prostate
BT-549 breast = system: BT-549 breast
K-562 leukemia = system: K-562 leukemia
NCI-H522 lung = system: NCI-H522 lung
IGROV1 ovarian = system: IGROV1 ovarian
SR leukemia = system: SR leukemia
OVCAR-8 ovarian = system: OVCAR-8 ovarian
SK-MEL-28 melanoma = system: SK-MEL-28 melanoma
SW-620 colon = system: SW-620 colon
HS 578T breast = system: HS 578T breast
MOLT-4 leukemia = system: MOLT-4 leukemia
786-0 renal = system: 786-0 renal
UACC-257 melanoma = system: UACC-257 melanoma
UO-31 renal = system: UO-31 renal
T-47D breast = system: T-47D breast
SK-MEL-5 melanoma = system: SK-MEL-5 melanoma
NCI/ADR-RES ovarian = system: NCI/ADR-RES ovarian
HT29 colon = system: HT29 colon
U251 CNS = system: U251 CNS
PC-3 prostate = system: PC-3 prostate
LOX IMVI melanoma = system: LOX IMVI melanoma
RXF 393 renal = system: RXF 393 renal
MDA-MB-231 breast = system: MDA-MB-231 breast
A498 renal = system: A498 renal
SNB-75 CNS = system: SNB-75 CNS
HL-60(TB) leukemia = system: HL-60(TB) leukemia
TK-10 renal = system: TK-10 renal
KM12 colon = system: KM12 colon
SK-OV-3 ovarian = system: SK-OV-3 ovarian
NCI-H460 lung = system: NCI-H460 lung
M14 melanoma = system: M14 melanoma
OVCAR-5 ovarian = system: OVCAR-5 ovarian
SF-295 CNS = system: SF-295 CNS
CCRF-CEM leukemia = system: CCRF-CEM leukemia
ACHN renal = system: ACHN renal
SF-268 CNS = system: SF-268 CNS
CAKI-1 renal = system: CAKI-1 renal

SMILES: COC(=O)c1c(C(=O)OC)c2ccc3c4ccccc4ccc3n2c1C(=O)C(C)Br (stereo not drawn)
- GI50 (MDA-MB-468 breast): 13.2 µM
- TGI (MDA-MB-468 breast): 52.4 µM
- GI50 (SN12C renal): 17.2 µM
- TGI (SN12C renal): > 100 µM
- GI50 (UACC-62 melanoma): 11.9 µM
- TGI (UACC-62 melanoma): > 100 µM
- GI50 (MDA-MB-435): 16.1 µM
- TGI (MDA-MB-435): > 100 µM
- GI50 (MALME-3M melanoma): 6.1 µM
- TGI (MALME-3M melanoma): 43 µM
- GI50 (HCT-15 colon): 6.17 µM
- TGI (HCT-15 colon): 30.3 µM
- GI50 (OVCAR-4 ovarian): 25.6 µM
- TGI (OVCAR-4 ovarian): > 100 µM
- GI50 (NCI-H226 lung): 25.6 µM
- TGI (NCI-H226 lung): > 100 µM
- GI50 (EKVX NSCLC): 42.4 µM
- TGI (EKVX NSCLC): > 100 µM
- GI50 (NCI-H23 lung): 12.9 µM
- TGI (NCI-H23 lung): > 100 µM
- GI50 (HCT-116 colon): 11 µM
- TGI (HCT-116 colon): > 100 µM
- GI50 (HOP-62 NSCLC): 33.1 µM
- TGI (HOP-62 NSCLC): > 100 µM
- GI50 (RPMI-8226 leukemia): 7.43 µM
- TGI (RPMI-8226 leukemia): 48.1 µM
- GI50 (SF-539 CNS): 10.9 µM
- TGI (SF-539 CNS): 25.6 µM
- GI50 (COLO 205 colon): 38.8 µM
- TGI (COLO 205 colon): > 100 µM
- GI50 (HOP-92 NSCLC): 15.2 µM
- TGI (HOP-92 NSCLC): > 100 µM
- GI50 (HCC-2998 colon): 39.9 µM
- TGI (HCC-2998 colon): > 100 µM
- GI50 (SK-MEL-2 melanoma): 17.9 µM
- TGI (SK-MEL-2 melanoma): 94.1 µM
- GI50 (OVCAR-3 ovarian): 16.9 µM
- TGI (OVCAR-3 ovarian): > 100 µM
- GI50 (A549 NSCLC): 42.2 µM
- TGI (A549 NSCLC): > 100 µM
- GI50 (SNB-19 CNS): 51.5 µM
- TGI (SNB-19 CNS): > 100 µM
- GI50 (MCF7 breast): 4.58 µM
- TGI (MCF7 breast): > 100 µM
- GI50 (DU-145 prostate): > 100 µM
- TGI (DU-145 prostate): > 100 µM
- GI50 (BT-549 breast): 6.18 µM
- TGI (BT-549 breast): 40.2 µM
- GI50 (K-562 leukemia): 6.48 µM
- TGI (K-562 leukemia): > 100 µM
- GI50 (NCI-H522 lung): 3.07 µM
- TGI (NCI-H522 lung): 15.2 µM
- GI50 (IGROV1 ovarian): 33.2 µM
- TGI (IGROV1 ovarian): > 100 µM
- GI50 (SR leukemia): 5.87 µM
- TGI (SR leukemia): > 100 µM
- GI50 (OVCAR-8 ovarian): 14.9 µM
- TGI (OVCAR-8 ovarian): > 100 µM
- GI50 (SK-MEL-28 melanoma): 25.7 µM
- TGI (SK-MEL-28 melanoma): > 100 µM
- GI50 (SW-620 colon): 7.26 µM
- TGI (SW-620 colon): 58.3 µM
- GI50 (HS 578T breast): 18.8 µM
- TGI (HS 578T breast): 92.7 µM
- GI50 (MOLT-4 leukemia): 3.3 µM
- TGI (MOLT-4 leukemia): > 100 µM
- GI50 (786-0 renal): 21.1 µM
- TGI (786-0 renal): > 100 µM
- GI50 (UACC-257 melanoma): 44.2 µM
- TGI (UACC-257 melanoma): > 100 µM
- GI50 (UO-31 renal): 24.9 µM
- TGI (UO-31 renal): > 100 µM
- GI50 (T-47D breast): 11.5 µM
- TGI (T-47D breast): > 100 µM
- GI50 (SK-MEL-5 melanoma): 13 µM
- TGI (SK-MEL-5 melanoma): 46.8 µM
- GI50 (NCI/ADR-RES ovarian): 17.7 µM
- TGI (NCI/ADR-RES ovarian): > 100 µM
- GI50 (HT29 colon): 20.6 µM
- TGI (HT29 colon): > 100 µM
- GI50 (U251 CNS): 18.3 µM
- TGI (U251 CNS): > 100 µM
- GI50 (PC-3 prostate): 17.8 µM
- TGI (PC-3 prostate): > 100 µM
- GI50 (LOX IMVI melanoma): 4.35 µM
- TGI (LOX IMVI melanoma): 23.7 µM
- GI50 (RXF 393 renal): 2.79 µM
- TGI (RXF 393 renal): 36.7 µM
- GI50 (MDA-MB-231 breast): 4.72 µM
- TGI (MDA-MB-231 breast): 35.8 µM
- GI50 (A498 renal): 88.1 µM
- TGI (A498 renal): > 100 µM
- GI50 (SNB-75 CNS): 24.7 µM
- TGI (SNB-75 CNS): > 100 µM
- GI50 (HL-60(TB) leukemia): 5.39 µM
- TGI (HL-60(TB) leukemia): > 100 µM
- GI50 (TK-10 renal): 76.3 µM
- TGI (TK-10 renal): > 100 µM
- GI50 (KM12 colon): > 100 µM
- TGI (KM12 colon): > 100 µM
- GI50 (SK-OV-3 ovarian): > 100 µM
- TGI (SK-OV-3 ovarian): > 100 µM
- GI50 (NCI-H460 lung): 17.8 µM
- TGI (NCI-H460 lung): > 100 µM
- GI50 (M14 melanoma): 31.3 µM
- TGI (M14 melanoma): > 100 µM
- GI50 (OVCAR-5 ovarian): 22.5 µM
- TGI (OVCAR-5 ovarian): > 100 µM
- GI50 (SF-295 CNS): 28.3 µM
- TGI (SF-295 CNS): > 100 µM
- GI50 (CCRF-CEM leukemia): 3.92 µM
- TGI (CCRF-CEM leukemia): > 100 µM
- GI50 (ACHN renal): 22.2 µM
- TGI (ACHN renal): > 100 µM
- GI50 (SF-268 CNS): 34.4 µM
- TGI (SF-268 CNS): > 100 µM
- GI50 (CAKI-1 renal): 21.2 µM
- TGI (CAKI-1 renal): > 100 µM
